From patent publication US20260092071A1, “COMPOUNDS AND COMPOSITIONS AS SMARCA2/4 DEGRADERS AND USES THEREOF” (REGENTS OF THE UNIVERSITY OF MICHIGAN, priority 2022, published 2026)
Read-outs that look alike come from different tables or passages of the source.

Experiments:
[1] = biological target: SMARCA4 (Homo sapiens, UniProt P51532); experiment: HiBiT assay for protein degradation, Hela SMARCA4-HiBiT cells (A series); assay type: cell-based; parameters: fuse HiBiT to the carboxy terminus of SMARCA2 (Promega CS302365) or SMARCA4 (Promega CS3023225); host or cells: HeLa (CRISPR/Cas9 HiBiT knock-in); settings: Hela SMARCA4-HiBiT cells, 24 hours treatment; for DC50: read-out: SMARC A4 Hela HiBit DC50
SMARCA4, sequence (P51532 whole entry): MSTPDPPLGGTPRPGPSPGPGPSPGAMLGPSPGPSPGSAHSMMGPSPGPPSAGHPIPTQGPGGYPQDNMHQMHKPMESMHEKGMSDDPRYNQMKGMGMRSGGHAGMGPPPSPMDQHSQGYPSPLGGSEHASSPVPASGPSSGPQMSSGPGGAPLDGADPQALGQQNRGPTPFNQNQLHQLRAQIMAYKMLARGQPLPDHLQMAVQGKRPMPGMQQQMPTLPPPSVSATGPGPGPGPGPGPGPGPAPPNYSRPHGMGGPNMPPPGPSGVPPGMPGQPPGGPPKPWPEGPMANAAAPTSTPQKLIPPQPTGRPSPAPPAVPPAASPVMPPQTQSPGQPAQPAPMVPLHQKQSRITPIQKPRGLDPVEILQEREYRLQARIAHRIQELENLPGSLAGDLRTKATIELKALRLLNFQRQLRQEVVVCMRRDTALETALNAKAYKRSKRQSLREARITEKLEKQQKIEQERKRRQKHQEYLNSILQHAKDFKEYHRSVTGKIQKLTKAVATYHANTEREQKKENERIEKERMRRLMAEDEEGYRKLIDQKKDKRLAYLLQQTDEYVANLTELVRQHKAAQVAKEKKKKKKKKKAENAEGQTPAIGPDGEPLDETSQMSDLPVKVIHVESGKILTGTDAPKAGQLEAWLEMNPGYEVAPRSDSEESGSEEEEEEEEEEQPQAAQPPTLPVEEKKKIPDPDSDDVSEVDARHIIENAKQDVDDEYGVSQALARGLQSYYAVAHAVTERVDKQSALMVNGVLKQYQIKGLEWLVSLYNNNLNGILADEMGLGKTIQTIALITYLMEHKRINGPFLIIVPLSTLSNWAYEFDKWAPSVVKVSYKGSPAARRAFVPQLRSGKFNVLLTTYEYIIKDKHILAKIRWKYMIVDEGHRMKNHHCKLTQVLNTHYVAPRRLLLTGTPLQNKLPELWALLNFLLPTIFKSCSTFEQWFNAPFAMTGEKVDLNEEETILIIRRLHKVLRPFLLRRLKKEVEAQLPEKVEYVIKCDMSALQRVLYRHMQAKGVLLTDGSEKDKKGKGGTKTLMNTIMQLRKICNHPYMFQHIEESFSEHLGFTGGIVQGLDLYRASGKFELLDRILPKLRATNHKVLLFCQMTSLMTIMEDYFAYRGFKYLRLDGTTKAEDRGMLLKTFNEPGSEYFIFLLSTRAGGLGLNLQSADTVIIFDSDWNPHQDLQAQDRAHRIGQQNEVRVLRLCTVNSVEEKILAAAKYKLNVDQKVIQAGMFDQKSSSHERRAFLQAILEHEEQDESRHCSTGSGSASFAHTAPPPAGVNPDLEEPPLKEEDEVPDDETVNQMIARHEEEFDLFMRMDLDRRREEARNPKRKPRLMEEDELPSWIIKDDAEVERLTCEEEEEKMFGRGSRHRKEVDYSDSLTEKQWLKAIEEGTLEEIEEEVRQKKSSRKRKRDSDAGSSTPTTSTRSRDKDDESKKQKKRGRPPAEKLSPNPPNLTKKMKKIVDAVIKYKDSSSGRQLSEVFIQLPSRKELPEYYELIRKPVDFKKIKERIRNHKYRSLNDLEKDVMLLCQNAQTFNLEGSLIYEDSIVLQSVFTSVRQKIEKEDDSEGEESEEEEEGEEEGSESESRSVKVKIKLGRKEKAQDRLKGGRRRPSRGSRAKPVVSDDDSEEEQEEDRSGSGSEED
Outline: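 SMARCA4 degradation was measured in HeLa cells in which HiBiT had been knocked into the SMARCA4 carboxy terminus via CRISPR/Cas9 (Promega CS3023225). Cells were maintained in DMEM with FBS and penicillin-streptomycin. At the end of treatment, SMARCA4 levels were read by lytic HiBiT luminescence (Nano-Glo®, Promega N3050), and data were analyzed with GraphPad Prism.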

[2] = biological target: SMARCA2 (Homo sapiens, UniProt P51531); experiment: HiBiT assay for protein degradation, Hela SMARCA2-HiBiT cells (A series); assay type: cell-based; parameters: Hela cells were genetically modified via CRISPR/Cas9 to fuse HiBiT to the carboxy terminus of SMARCA2; host or cells: HeLa (CRISPR/Cas9 HiBiT knock-in); settings: Hela SMARCA2-HiBiT cells, 24 hours treatment; for DC50: read-out: SMARC A2 Hela HiBit DC50; for Dmax: read-out: SMARC A2 Hela HiBit Dmax (%);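 as to SMARC A2 Hela HiBit Dmax (%): 24 h compound treatment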
SMARCA2, sequence (P51531 whole entry): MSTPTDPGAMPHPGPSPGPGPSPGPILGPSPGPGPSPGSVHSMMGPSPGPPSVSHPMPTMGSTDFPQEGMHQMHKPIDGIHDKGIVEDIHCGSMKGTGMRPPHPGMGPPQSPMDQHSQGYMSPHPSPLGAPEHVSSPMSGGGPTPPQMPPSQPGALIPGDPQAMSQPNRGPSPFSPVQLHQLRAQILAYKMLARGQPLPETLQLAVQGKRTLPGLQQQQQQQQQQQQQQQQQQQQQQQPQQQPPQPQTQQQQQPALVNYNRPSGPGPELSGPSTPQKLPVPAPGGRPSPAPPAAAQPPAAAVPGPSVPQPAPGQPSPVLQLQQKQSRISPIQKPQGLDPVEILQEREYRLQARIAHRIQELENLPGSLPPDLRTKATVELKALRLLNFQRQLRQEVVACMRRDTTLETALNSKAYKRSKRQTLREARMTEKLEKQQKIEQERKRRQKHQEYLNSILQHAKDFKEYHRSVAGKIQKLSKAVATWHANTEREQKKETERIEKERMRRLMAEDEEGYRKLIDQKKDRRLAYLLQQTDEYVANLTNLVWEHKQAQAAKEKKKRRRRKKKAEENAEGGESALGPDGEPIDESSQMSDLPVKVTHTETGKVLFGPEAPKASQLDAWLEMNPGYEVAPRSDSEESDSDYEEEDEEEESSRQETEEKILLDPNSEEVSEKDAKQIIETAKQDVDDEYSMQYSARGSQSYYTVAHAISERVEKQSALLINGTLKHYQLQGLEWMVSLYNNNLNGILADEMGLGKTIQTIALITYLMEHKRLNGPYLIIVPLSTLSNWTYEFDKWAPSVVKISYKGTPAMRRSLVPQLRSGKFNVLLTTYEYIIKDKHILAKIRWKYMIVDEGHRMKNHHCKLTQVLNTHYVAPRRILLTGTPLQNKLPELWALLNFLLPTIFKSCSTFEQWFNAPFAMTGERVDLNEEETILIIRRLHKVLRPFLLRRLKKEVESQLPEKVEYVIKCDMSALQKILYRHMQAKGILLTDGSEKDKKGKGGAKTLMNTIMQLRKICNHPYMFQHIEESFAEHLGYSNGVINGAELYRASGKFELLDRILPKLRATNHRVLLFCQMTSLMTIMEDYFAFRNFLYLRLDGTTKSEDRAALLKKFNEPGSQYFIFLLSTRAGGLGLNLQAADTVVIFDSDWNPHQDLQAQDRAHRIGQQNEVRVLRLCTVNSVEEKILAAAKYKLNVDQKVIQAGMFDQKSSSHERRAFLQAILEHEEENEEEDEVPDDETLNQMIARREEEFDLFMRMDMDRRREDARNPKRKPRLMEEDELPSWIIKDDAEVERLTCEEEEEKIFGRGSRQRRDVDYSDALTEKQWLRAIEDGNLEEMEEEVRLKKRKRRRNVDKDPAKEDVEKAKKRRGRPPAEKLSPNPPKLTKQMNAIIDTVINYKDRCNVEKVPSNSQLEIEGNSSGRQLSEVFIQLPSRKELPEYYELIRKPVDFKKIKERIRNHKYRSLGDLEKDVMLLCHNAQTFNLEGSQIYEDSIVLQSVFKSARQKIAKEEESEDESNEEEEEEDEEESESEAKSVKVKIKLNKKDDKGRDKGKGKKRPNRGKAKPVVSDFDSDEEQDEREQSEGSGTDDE
Outline: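 SMARCA2 degradation was measured in HeLa cells whose endogenous SMARCA2 carries a carboxy-terminal HiBiT tag introduced by CRISPR/Cas9 (Promega CS302365). Cells were maintained in DMEM with FBS and penicillin-streptomycin. SMARCA2 levels were read at the end of the experiment by Nano-Glo® HiBiT lytic luminescence (Promega N3050) and analyzed in GraphPad Prism.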

[3] = read-out: SMARC A4 Hela HiBit Dmax
[4] = read-out: SMARC A4 Hela HiBit Dmax(%)

| SMARC A4 Hela HiBit DC50(nM) [1] | Dmax [1, 3] | DC50 [2] | Dmax [2] | DC50 [1] | Dmax [1, 4] | Compound |
| --- | --- | --- | --- | --- | --- | --- |
| – | – | < 0.1 µM | > 90% | < 0.1 µM | > 90% | Cc1ncsc1-c1ccc([C@H](C)NC(=O)[C@@H]2C[C@@H](O)CN2C(=O)[C@@H](n2cc(CCCCCCN3CCC(c4ccc5c(c4)C4(CCCCC4)c4nc(=O)c6c(Br)cccc6n4-5)CC3)nn2)C(C)(C)C)cc1 [Compound A58, (2S,4R)-1-((S)-2-(4-(6-(4-(4′-bromo-5′-oxo-5′H-spiro[cyclohexane-1,7′-indolo[1,2-a]quinazolin]-9′-yl)piperidin-1-yl)hexyl)-1H-1,2,3-triazol-1-yl)-3,3-dimethylbutanoyl)-4-hydroxy-N—((S)-1-(4-(4-methylthiazol-5-yl)phenyl)ethyl)pyrrolidine-2-carboxamide] |
| – | – | < 0.1 µM | > 90% | < 0.1 µM | > 90% | Cc1ncsc1-c1ccc([C@H](C)NC(=O)[C@@H]2C[C@@H](O)CN2C(=O)[C@@H](n2cc(CCN3CCC(c4ccc5c(c4)C4(CCCCC4)c4nc(=O)c6c(Br)cccc6n4-5)CC3)nn2)C(C)(C)C)cc1 [Compound A54, (2S,4R)-1-((S)-2-(4-(2-(4-(4′-bromo-5′-oxo-5′H-spiro[cyclohexane-1,7′-indolo[1,2-a]quinazolin]-9′-yl)piperidin-1-yl)ethyl)-1H-1,2,3-triazol-1-yl)-3,3-dimethylbutanoyl)-4-hydroxy-N—((S)-1-(4-(4-methylthiazol-5-yl)phenyl)ethyl)pyrrolidine-2-carboxamide] |

Further lines, the compound ahead of its results:

| Compound | SMARC A4 Hela HiBit DC50(nM) [1] | Dmax [1, 3] | DC50 [2] | Dmax [2] | DC50 [1] | Dmax [1, 4] |
| --- | --- | --- | --- | --- | --- | --- |
| Cc1ncsc1-c1ccc([C@H](C)NC(=O)[C@@H]2C[C@@H](O)CN2C(=O)[C@H](C2CCCCC2)n2cc([C@H]3CC[C@H](CN4CCC(c5ccc6c(c5)-n5c(nc(=O)c7c(Cl)cccc75)C6(C)C)CC4)CC3)nn2)cc1 [Compound A124, (2S,4R)-1-((S)-2-(4-((1r,4S)-4-((4-(4-chloro-7,7-dimethyl-5-oxo-5,7-dihydroindolo[1,2-a]quinazolin-10-yl)piperidin-1-yl)methyl)cyclohexyl)-1H-1,2,3-triazol-1-yl)-2-cyclohexylacetyl)-4-hydroxy-N—((S)-1-(4-(4-methylthiazol-5-yl)phenyl)ethyl)pyrrolidine-2-carboxamide] | No fit | < 50% | < 0.01 µM | > 90% | – | – |
| Cc1ncsc1-c1ccc([C@H](C)NC(=O)[C@@H]2C[C@@H](O)CN2C(=O)[C@H](C2CCN(C(=O)CCCN3CCC(c4ccc5c(c4)-n4c(nc(=O)c6c(Cl)cccc64)C54CCCCC4)CC3)CC2)n2cc(C3CC3)nn2)cc1 [Compound A106, (2S,4R)-1-((S)-2-(1-(4-(4-(4′-chloro-5′-oxo-5′H-spiro[cyclohexane-1,7′-indolo[1,2-a]quinazolin]-10′-yl)piperidin-1-yl)butanoyl)piperidin-4-yl)-2-(4-cyclopropyl-1H-1,2,3-triazol-1-yl)acetyl)-4-hydroxy-N—((S)-1-(4-(4-methylthiazol-5-yl)phenyl)ethyl)pyrrolidine-2-carboxamide] | – | < 50% | 0.1 to 1 µM | 70 to 90% | 0.1 to 1 µM | – |
| Cc1ncsc1-c1ccc([C@H](C)NC(=O)[C@@H]2C[C@@H](O)CN2C(=O)[C@H](C2CCNCC2)n2cc([C@H]3CC[C@H](CN4CCC(c5ccc6c(c5)-n5c(nc(=O)c7c(Cl)cccc75)C65CCCCC5)CC4)CC3)nn2)cc1 [Compound A109, (2S,4R)-1-((S)-2-(4-((1r,4S)-4-((4-(4′-chloro-5′-oxo-5′H-spiro[cyclohexane-1,7′-indolo[1,2-a]quinazolin]-10′-yl)piperidin-1-yl)methyl)cyclohexyl)-1H-1,2,3-triazol-1-yl)-2-(piperidin-4-yl)acetyl)-4-hydroxy-N—((S)-1-(4-(4-methylthiazol-5-yl)phenyl)ethyl)pyrrolidine-2-carboxamide] | – | 50 to 69% | 0.1 to 1 µM | 70 to 90% | > 1 µM | – |
